In paper PMC11629774 (Science (New York, N.Y.), 2024):

Test system: primary human tonsillar lymphocytes
Assay: Toxicity in primary human tonsillar lymphocytes at 72 hours
Assay type: cell-based
Conditions: Lymphocyte, read-out: EC50 toxicity

`CC(C)(C)c1cnc(CSc2cnc(NC(=O)C3CCNCC3)s2)o1` [SNS-032] showed an EC50 of ~0.15 µM.
For `CC(C)(C)c1cnc(CSc2cnc(NC(=O)C3CCN(CC(=O)NCCOCCOCCOCCNc4cccc5c4C(=O)N(C4CCC(=O)NC4=O)C5=O)CC3)s2)o1` (centres unmarked) [THAL-SNS-032], the EC50 was ~0.015 µM.
